The nature of experiment [1]: Inhibition of rat small intestinal brush border membrane cellobiase assessed as reduction in production of D-glucose using disaccharides as substrate incubated for 10 to 30 mins.
Experiment [2] is described as follows: Inhibition of almond beta-glucosidase assessed as reduction in production of D-glucose using disaccharides as substrate incubated for 10 to 30 mins. Also noted: species or system Prunus dulcis.
In experiment [3] the target is T1, Sucrase-isomaltase, intestinal (Rattus norvegicus, UniProt P23739). Kind of experiment: Inhibition of rat small intestinal brush border membrane isomaltase assessed as reduction in production of D-glucose using disaccharides as substrate incubated for 10 to 30 mins.
T1 sequence (P23739 1-1013 limits assumed): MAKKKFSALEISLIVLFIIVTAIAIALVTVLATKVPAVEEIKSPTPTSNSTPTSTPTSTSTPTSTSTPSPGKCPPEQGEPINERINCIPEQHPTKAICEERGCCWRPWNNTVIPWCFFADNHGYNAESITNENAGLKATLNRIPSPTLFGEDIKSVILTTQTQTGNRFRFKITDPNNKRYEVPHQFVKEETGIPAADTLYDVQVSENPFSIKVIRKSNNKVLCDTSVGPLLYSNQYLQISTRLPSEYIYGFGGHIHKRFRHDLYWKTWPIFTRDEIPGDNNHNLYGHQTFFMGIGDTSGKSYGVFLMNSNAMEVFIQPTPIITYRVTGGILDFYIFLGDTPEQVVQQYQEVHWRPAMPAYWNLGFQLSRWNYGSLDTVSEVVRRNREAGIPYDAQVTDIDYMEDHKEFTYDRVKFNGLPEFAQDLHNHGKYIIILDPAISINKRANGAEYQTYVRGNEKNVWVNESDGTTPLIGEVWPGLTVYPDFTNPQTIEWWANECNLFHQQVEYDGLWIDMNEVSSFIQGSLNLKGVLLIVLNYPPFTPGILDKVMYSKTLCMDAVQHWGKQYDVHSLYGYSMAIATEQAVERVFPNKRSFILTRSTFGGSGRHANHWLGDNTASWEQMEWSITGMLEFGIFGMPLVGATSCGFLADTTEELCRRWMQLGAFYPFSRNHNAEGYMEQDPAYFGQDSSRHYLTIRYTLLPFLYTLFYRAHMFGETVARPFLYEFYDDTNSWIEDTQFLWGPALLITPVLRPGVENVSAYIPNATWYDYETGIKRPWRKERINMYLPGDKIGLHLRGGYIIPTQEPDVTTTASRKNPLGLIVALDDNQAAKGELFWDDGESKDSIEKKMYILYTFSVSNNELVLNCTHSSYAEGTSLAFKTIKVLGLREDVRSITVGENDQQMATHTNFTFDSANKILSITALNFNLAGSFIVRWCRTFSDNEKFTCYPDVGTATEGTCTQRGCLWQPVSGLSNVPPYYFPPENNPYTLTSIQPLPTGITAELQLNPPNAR
T1 sequence (P23739 1014-1841 limits assumed): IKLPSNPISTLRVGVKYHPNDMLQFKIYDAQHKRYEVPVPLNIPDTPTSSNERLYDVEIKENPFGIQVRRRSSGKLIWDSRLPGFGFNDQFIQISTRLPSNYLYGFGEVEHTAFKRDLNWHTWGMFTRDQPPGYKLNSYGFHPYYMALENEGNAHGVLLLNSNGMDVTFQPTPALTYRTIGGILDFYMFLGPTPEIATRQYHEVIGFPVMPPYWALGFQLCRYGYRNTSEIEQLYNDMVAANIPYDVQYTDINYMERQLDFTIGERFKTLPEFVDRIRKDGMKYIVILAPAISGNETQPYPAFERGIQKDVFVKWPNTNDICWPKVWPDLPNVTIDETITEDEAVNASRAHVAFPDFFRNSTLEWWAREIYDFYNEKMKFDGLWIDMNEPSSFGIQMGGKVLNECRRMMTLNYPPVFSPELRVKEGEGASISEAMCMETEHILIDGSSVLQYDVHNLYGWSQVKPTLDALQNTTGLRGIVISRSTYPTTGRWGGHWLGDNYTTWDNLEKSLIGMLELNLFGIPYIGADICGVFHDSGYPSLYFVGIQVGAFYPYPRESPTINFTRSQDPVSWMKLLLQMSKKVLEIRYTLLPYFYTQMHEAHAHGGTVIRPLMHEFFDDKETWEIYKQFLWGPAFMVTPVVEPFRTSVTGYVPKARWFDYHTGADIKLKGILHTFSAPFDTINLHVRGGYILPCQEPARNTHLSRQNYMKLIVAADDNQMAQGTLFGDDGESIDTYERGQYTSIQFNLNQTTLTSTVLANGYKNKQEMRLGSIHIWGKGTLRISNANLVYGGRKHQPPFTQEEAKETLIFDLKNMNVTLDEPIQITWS
In experiment [4] the target is T1, Sucrase-isomaltase, intestinal. Kind of experiment: Inhibition of rat small intestinal brush border membrane sucrase assessed as reduction in production of D-glucose using disaccharides as substrate incubated for 10 to 30 mins.
Experiment [5] can be described thus: Inhibition of rice alpha-glucosidase assessed as reduction in production of D-glucose using disaccharides as substrate incubated for 10 to 30 mins. Also noted: species or system Oryza sativa.
A short description of experiment [6]: Inhibition of rat small intestinal brush border membrane maltase assessed as reduction in production of D-glucose using maltose as substrate incubated for 10 to 30 mins.

One may read the pIC50 as the IC50 on a negative log10 scale, so that one unit is a factor of ten.

The structures appear in SMILES notation. pIC50: −log10 of the molar value.

Take `O=c1cc(C(F)(F)F)c2ccc(OCCCCn3cc(CCCCN4C[C@H](O)[C@@H](O)[C@H](O)[C@H]4CO)nn3)cc2o1`: the negative logarithm of the IC50 (pIC50) is 3.66 in experiment [1]; 5.42 in experiment [2]; 5.39 in experiment [3]; 6.02 in experiment [4]; 7.24 in experiment [5]; 6.27 in experiment [6].
For the compound `O=c1ccc2nc3ccc(OCCCCn4cc(CCCCN5C[C@H](O)[C@@H](O)[C@H](O)[C@H]5CO)nn4)cc3oc-2c1`, the pIC50 in experiment [1] is 3.76; in experiment [3], 5.20; in experiment [4], 5.57; in experiment [5], 5.68; in experiment [6] it was 6.19.
Regarding `CCN(CC)c1ccc2cc(C(=O)NCCOCCOCCOCCn3cc(CCCCN4C[C@H](O)[C@@H](O)[C@H](O)[C@H]4CO)nn3)c(=O)oc2c1`, the pIC50 in experiment [1] is 3.52; in experiment [3] it was 4.87; in experiment [4] it was 5.85; in experiment [5], 6.96; in experiment [6], 7.00.
`Cc1cc(=O)oc2cc(OCCCCn3cc(CCCCN4C[C@H](O)[C@@H](O)[C@H](O)[C@H]4CO)nn3)ccc12`: the negative logarithm of the IC50 (pIC50) in experiment [1] is 4.27; in experiment [2], 5.03; in experiment [3], 5.85; in experiment [4] it was 6.27; in experiment [5] it was 7.38; in experiment [6], 6.82.
Take `CN(C)c1cccc2c(S(=O)(=O)NCCOCCn3cc(CCCCN4C[C@H](O)[C@@H](O)[C@H](O)[C@H]4CO)nn3)cccc12`: the negative logarithm of the IC50 (pIC50) is 3.38 in experiment [1]; 4.01 in experiment [2]; 5.34 in experiment [3]; 5.72 in experiment [4]; 7.04 in experiment [5]; 6.04 in experiment [6].
Take `OC[C@H]1NC[C@H](O)[C@@H](O)[C@@H]1O` [DUVOGLUSTAT]: the pIC50 was 3.49 in experiment [1], 4.07 in experiment [2] and 7.30 in experiment [5].
`OCCN1C[C@H](O)[C@@H](O)[C@H](O)[C@H]1CO` [MIGLITOL]: the pIC50 in experiment [1] is 3.79; in experiment [2] it was 3.42; in experiment [5] it was 7.00; in experiment [6], 6.23.

For the origin of these results see ChEMBL document CHEMBL3872266, “Synthesis and characterization of novel, conjugated, fluorescent DNJ derivatives for α-glucosidase recognition” (Bioorg Med Chem, 2017).
